Here are results for four compounds from patent publication US20100260753A1, “AMINOFLAVONE (NSC 686288) AND COMBINATIONS THEREOF FOR TREATING BREAST CANCER” (priority 2007, published 2010).

Values joined by “and” are separate entries in the source; they are usually repeats but may differ in a detail not shown here. Equal entries are not always repeated. Where two headings read alike, the source gives them in different places.

The subject of test [1] is MCF-7 TAM1. The test is described as follows: MTT proliferation assay, MCF-7 TAM1. The format is cell-based, human. The protocol: (§1) FIG. 2B depicts an MTT assay (10 days) comparing the sensitivity of parental MCF-7 to aminoflavone and the tamoxifen resistant subclone MCF-7TAM1 to 4-OH tamoxifen (TAM) and aminoflavone respectively. Cells were grown in medium with charcoal-stripped fetal calf serum supplemented with 10 nM E2, estrogen. MCF-7 cells that have become resistant to tamoxifen by either selection (MCF-7TAM1, FIG. 2B), or genetic manipulation (MCF-7Her2-18, Table 1), remain sensitive to aminoflavone. An understanding of how MCF-7 DF203r and MDA-MB-231 differ from MCF-7 in the dynamics and distribution of their AhR and AhR associated signaling complexes may allow the clarification of the basis for aminoflavone sensitivity and resistance.
(§2) MCF-7Her2-18 is a variant of MCF-7 over-expressing the Her2/neu oncoprotein. As a result, it is resistant to Herceptin® (Shou et al. 2004 “Mechanisms of tamoxifen resistance: increased estrogen receptor-HER2/neu cross-talk in ER/HER2-positive breast cancer.” J Nat Cancer Inst 96: 926-35) and tamoxifen. […] (1999 “A multidrug resistance transporter from human MCF-7 breast cancer cells.” Proc Natl Acad Sci USA. 95: 15665-70.) The IC50s (16-20 nM) and IC100s of aminoflavone (˜300 nM) were nearly identical in MCF-7Her2-18 and parental MCF-7 cells (See Table 1, below). In MCF-7TAM1 cells, which were serum starved and then treated for 10 days with E2 alone, 4-OH-tamoxifen plus E2, and aminoflavone plus E2, the concentration of 4-OH-tamoxifen causing growth inhibition was >10 μM.
(§3) Table 1 below summarizes the results of the MTT (methyl tetrazolium) tests that were performed to assay cell growth in a panel breast cell lines and their characteristics. Both, MCF-7Her2-18 and MCF-7TAM1 express estrogen receptor. […] The ER(−) cells MDA-MB-231 and MCF10A with nuclear AhR are several log-fold less sensitive to aminoflavone (Table 1, FIG. 4). These observations confirm that aminoflavone is valuable in patients who have lost clinical benefit from estrogen receptor antagonists. […]

A further test relates to MCF-7 cells. The test is described as follows: aminoflavone combination with estrogen receptor antagonists in MCF-7 cells. The conditions noted are these: administered with aminoflavone (FIG. 9). The format is cell-based, human. The procedure: To examine the role of estrogen receptor in aminoflavone sensitivity, the inventors combined aminoflavone with a fixed concentration (100 nM) of the “pure” antiestrogen Faslodex® in MCF-7 cells.

Test [2] has as its system MCF-7 HER2-18. The test is described as follows: MTT proliferation assay, MCF-7 HER2-18. Conditions: mean of three independent experiments. Type of test: cell-based, human. The protocol: as §1, §2, §3
The subject of a further test is MCF-7DF203r. As to the kind of experiment: MTT proliferation assay (5 days), MCF-7DF203r. The format is cell-based, human. Conditions: MTT 5 days; MCF-7 subclone with acquired resistance to benzothiazoles (DF203). An excerpt: (Loaiza-Pérez et al.; Leong et al.) Isogenic subclones of MCF-7 resistant to the BZ DF203F (MCF-7DF203r), tamoxifen (MCF-7TAM1, MCF-7Her2-18) and Herceptin® (MCF-7Her2-18) were included.
(§4) FIG. 2A depicts in vitro MTT proliferation assay (5 days) showing aminoflavone activity in ER(+) and ER(−) breast cancer cell lines.

The next test has as its system LTLC. As to the kind of experiment: growth inhibition in hormone refractory LTLC (FIGS. 5A and 5B). Conditions: LTLC hormone refractory cell line. The format is cell-based, human.
The subject of test [3] is MDA-MB-231. The test is described as follows: MTT proliferation assay, MDA-MB-231. The format is cell-based, human. The protocol: as §4
(§5) Table 1 below summarizes the results of the MTT (methyl tetrazolium) tests that were performed to assay cell growth in a panel breast cell lines and their characteristics. Both, MCF-7Her2-18 and MCF-7TAM1 express estrogen receptor. […] The ER(−) cells MDA-MB-231 and MCF10A with nuclear AhR are several log-fold less sensitive to aminoflavone (Table 1, FIG. 4). These observations confirm that aminoflavone is valuable in patients who have lost clinical benefit from estrogen receptor antagonists.
(§6) The inhibitory concentrations 50% (IC50) and 100% (IC100) listed in Table 1 represent the mean of three independent experiments. The estrogen receptor and AhR assays were performed three times.
(In general: Tetrazolium dyes change colour on reduction, which living cells bring about.)

Another test concerns MCF-7 xenografts. Conditions: 120 mg/kg intraperitoneally, 5 days per week; cited from earlier work.
In test [4] the test system is MCF-7 TAM1. As to the kind of experiment: γ-H2AX foci induction, MCF-7 TAM1. Type of test: cell-based, human. The conditions noted are these: IC50 concentrations, 24 hrs after exposure. An excerpt: (§7) Previous studies have reported that the occurrence of foci of phosphorylated γ-H2AX is indicative of the cellular response to aminoflavone in MCF-7 cells (Meng et al.). γ-H2AX phosphorylation is an early indicator of DNA double strand breaks and thus, induction of DNA-damage response in cells.
(§8) Phosphorylation of the histone variant γ-H2AX is a rapid and sensitive response to DNA double strand breaks. Aminoflavone induces γ-H2AX foci in drug sensitive MCF-7 and MCF-7TAM1 cells at IC50 concentrations 24 hrs after exposure, but not in aminoflavone resistant MDA-MB-231 breast cancer cells. γ-H2AX was detected by using a FITC-labeled anti-mouse secondary antibody (green) and its nuclear expression is shown by co-localization with the nuclear stain DAPI (blue). AhR was detected with a TRITC-labeled (red) secondary antibody.

The subject of test [5] is T47D. The test is described as follows: MTT proliferation assay, T47D. The format is cell-based, human. The procedure:
as §4, §5, §6

Test [6] concerns T47D. The test is described as follows: γ-H2AX foci induction, T47D. The format is cell-based, human.
The next test deals with NCI 60 cell line. Conditions: "resistant" cell lines; cited from earlier work.
Test [7] deals with MCF10A. The test is described as follows: MTT proliferation assay, MCF10A. Type of test: cell-based, human. The protocol:
as §5, §6

The test system of test [8] is MCF10A. The test is described as follows: γ-H2AX foci induction, MCF10A. The format is cell-based, human.
The test system of test [9] is MCF-7 HER2-18. As to the kind of experiment: γ-H2AX foci induction, MCF-7 HER2-18. The format is cell-based, human.
A further test has as its system ER+MDA-MB-231 cells. The test is described as follows: aminoflavone sensitivity of MDA-MB-231 stably transfected with human estrogen receptor-α. Type of test: cell-based.
In test [10] the test system is MCF-7. The test is described as follows: γ-H2AX foci induction, MCF-7. Type of test: cell-based, human. The conditions noted are these: IC50 concentrations, 24 hrs after exposure.
Text: as §7, §8

Test [11] has as its system MCF-7. The test is described as follows: MTT proliferation assay, MCF-7. Type of test: cell-based, human. The protocol:
as §4, §1, §5, §6

Test [12] relates to MDA-MB-231. As to the kind of experiment: γ-H2AX foci induction, MDA-MB-231. Type of test: cell-based, human.
Text: as §7, §8

For another test, the system named is Hs578T. The test is described as follows: aminoflavone sensitivity of Hs578T (FIGS. 6A and 6B). Type of test: cell-based, human.
Setting [13] is: MCF-7, MTT, mean of three independent experiments.

As to `CC/C(=C(\c1ccc(O)cc1)c1ccc(OCCN(C)C)cc1)c1ccccc1` [4-OH-tamoxifen, reference compound], the “concentration causing growth inhibition” value in the test with MCF-7 TAM1 [1] (MCF-7TAM1, serum starved, 10 days, plus E2) was over 10 µM.

`C[C@]12CC[C@@H]3c4ccc(O)cc4C[C@@H](CCCCCCCCC[S+]([O-])CCCC(F)(F)C(F)(F)F)[C@H]3[C@@H]1CC[C@@H]2O` (stereo partly drawn) [Faslodex®, fulvestrant]: the “cell growth inhibition compared to aminoflavone alone” value with MCF-7 cells is given as “inhibited more greatly”.

`CC/C(=C(\c1ccccc1)c1ccc(OCCN(C)C)cc1)c1ccccc1` [tamoxifen]: the “cell growth inhibition compared to aminoflavone alone” value with MCF-7 cells is “inhibited more greatly”.

As to `Cc1c(F)c(N)c2c(=O)cc(-c3ccc(N)c(F)c3)oc2c1F` [aminoflavone], the IC50 is 16 to 20 nM in the test with MCF-7 HER2-18 [2] (Homo sapiens); 20 nM with MCF-7 HER2-18 [2]; 550 nM in the test with MCF-7 TAM1 [1] (Homo sapiens, MCF7:TAM1, 240 h, MCF-7 TAM1, MTT 10 days, plus E2); 14 nM with T47D [5] (Homo sapiens, MTT); 3000 nM in the test on MCF10A [7]; 3000 to 25000 nM in the test on MCF10A [7] (Homo sapiens, MCF-10A). Besides, the IC50 was 5000 nM in the test on ER+MDA-MB-231 cells (MDA-MB-231 stably transfected with human estrogen receptor-α); 16 to 20 nM in the test on MCF-7 [11] (Homo sapiens, MCF7, MCF-7, MTT, mean of three independent experiments); 16 nM in the test with MCF-7 [11] (setting [13]). The IC100 in the test on MCF-7 HER2-18 [2] is ~300 nM and 375 nM; in the test on MDA-MB-231 [3] (MTT) it was over 100 µM; in the test with MCF-7 TAM1 [1] (MCF-7 TAM1, MTT), 2 µM; with T47D [5] (MTT), 20 nM; in the test on MCF10A [7], 9 µM; in the test with MCF-7 [11] (setting [13]) it was about 300 nM. Besides, the sensitivity to aminoflavone result in the test on MCF-7DF203r is “essentially completely cross-resistant”; with MDA-MB-231 [3] (MTT 5 days (FIG. 2A)), “refractoriness”; with T47D [5] (MTT 5 days (FIG. 2A)), “pronounced susceptibility”; with MCF-7 [11] (MCF-7, MTT 5 days (FIG. 2A)) it was “pronounced susceptibility”; with Hs578T it was “resistant”. In addition, the tumor growth inhibition entry in the test with LTLC is “inhibits tumor growth”; in the test on MCF-7 xenografts, 85 % of control. The “γ-H2AX Focl” value in the test on MCF-7 TAM1 [4] is “induces and yes”; in the test on T47D [6], “yes”; with MCF10A [8], “no”; in the test with MCF-7 HER2-18 [9] it was “yes”; in the test with MCF-7 [10] it was “induces and yes”; in the test on MDA-MB-231 [12] it was “no”. For the same compound, the “total growth inhibition (TGI)” value in the test with NCI 60 cell line is at least 10000 nM. The “sensitivity compared to parental and vector transfected cells” value in the test with ER+MDA-MB-231 cells (ER+MDA-MB-231 vs parental and vector transfected cells) was found to be 5 times.

In general, IC50 refers to the concentration that gives 50% inhibition.
